Assay type in all cases: in vivo
The test system of test [1] is large crabgrass (Digitaria sanquinalis L.). Briefly: Test Example 29: pot, soil treatment, metobromuron + indanofan. To be noted: soil treatment, pot, 20th day after treatment, read-out: Growth inhibition rate of large crabgrass (%) Measured value. From the text:
(§1) When the herbicidal activity in a case where two active ingredients are combined, is larger than the simple sum of the respective herbicidal activities of the two active ingredients (the expected activity), it is called a synergistic effect. The activity expected by the combination of two active ingredients can be calculated as follows (Colby S. R., “Weed”, vol. 15, p. 20-22, 1967). E=α+β−(α×β[…]) where α: growth inhibition rate when treated with x (g/ha) of herbicide X, • β: growth inhibition rate when treated with y (g/ha) of herbicide Y, • E: growth inhibition rate expected when treated with x (g/ha) of herbicide X and y (g/ha) of herbicide Y.
(§2) On the 19th day after treatment, the state of growth of barnyardgrass was visually observed and evaluated in accordance with the following standards. The growth inhibition rate (%) [measured value] and the growth inhibition rate (%) [calculated value] calculated by the Colby's method, are shown in Table 2.
(§3) Growth inhibition rate (%)=inhibition rate) (%) of 0 (equivalent to the non-treated area) to 100 (complete kill)
Soil was put into a 1/300,000 ha pot, and seeds of large crabgrass (Digitaria sanquinalis L.) were sown. On the day after seeding, predetermined amounts of SC containing metobromuron as active ingredient (same as in Test Example 1) and WP containing indanofan as active ingredient were diluted with water corresponding to 1,000 L per hectare and applied for soil treatment.
On the 20th day after treatment, the state of growth of large crabgrass was visually observed and evaluated in the same manner as in Test Example 1.

Test [2] deals with black nightshade (Solanum nigrum L.). Briefly: Test Example 27: pot, soil treatment, metobromuron + flufenacet. As to conditions: soil treatment, pot, 21st day after treatment, read-out: Growth inhibition rate of black nightshade (%) Measured value.
Description: as §1, §2, §3
(§4) Soil was put into a 1/300,000 ha pot, and seeds of black nightshade (Solanum nigrum L.) were sown. On the day after seeding, predetermined amounts of SC containing metobromuron as active ingredient (same as in Test Example 1) and EC containing prosulfocarb as active ingredient (trade name: BOXER NYUZAI, manufactured by Syngenta) were diluted with water corresponding to 1,000 L per hectare and applied for soil treatment.
(§5) On the 21st day after treatment, the state of growth of black nightshade was visually observed and evaluated in the same manner as in Test Example 1.
The test was carried out in the same manner as in Test Example 26 except that EC containing prosulfocarb as active ingredient was changed to SC containing flufenacet as active ingredient (trade name: Cadou, manufactured by Bayer CropScience), to obtain the results as shown in Table 28.

The test system of test [3] is large crabgrass (Diqitaria sanquinalis L.). Briefly: Test Example 22: pot, soil treatment, metobromuron + prometryn. To be noted: Digitaria sanguinalis, soil treatment, pot, 21st day after treatment, read-out: Growth inhibition rate of large crabgrass (%) Measured value.
Description: as §1, §2, §3
(§6) Soil was put into a 1/300,000 ha pot, and seeds of barnyardgrass (Echinochloa crus-qalli L.) were sown. On the day after seeding, predetermined amounts of SC containing metobromuron as active ingredient (same as in Test Example 1) and WP containing prometryn as active ingredient (trade name: Gesagard 50, manufactured by Nippon Kayaku Co., Ltd.) were diluted with water corresponding to 1,000 L per hectare and applied for soil treatment.
(§7) On the 21st day after treatment, the state of growth of barnyardgrass was visually observed and evaluated in the same manner as in Test Example 1.
The test was carried out in the same manner as in Test Example 21 except that barnyardgrass (Echinochloa crus-qalli L.) was changed to large crabgrass (Diqitaria sanquinalis L.), to obtain the results as shown in Table 23.

Test [4] relates to barnyardgrass (Echinochloa crus-qalli L.). Briefly: Test Example 21: pot, soil treatment, metobromuron + prometryn. As to conditions: soil treatment, pot, 21st day after treatment, read-out: Growth inhibition rate of barnyardgrass (%) Measured value.
Description: as §1, §2, §3, §6, §7

The test system of test [5] is black nightshade (Solanum nigrum L.). Briefly: Test Example 26: pot, soil treatment, metobromuron + prosulfocarb. As to conditions: soil treatment, pot, 21st day after treatment, read-out: Growth inhibition rate of black nightshade (%) Measured value.
Description: as §1, §2, §3, §4, §5

The test system is the same in test [6]. Briefly: Test Example 14: pot, soil treatment, metobromuron + pyroxasulfone. To be noted: soil treatment, pot, 12th day after treatment, read-out: Growth inhibition rate of black nightshade (%) Measured value.
Description: as §1, §2, §3
Soil was put into a 1/300,000 ha pot, and seeds of black nightshade (Solanum nigrum L.) were sown. Prior to germination of black nightshade, predetermined amounts of SC containing metobromuron as active ingredient (same as in Test Example 1) and WG containing pyroxasulfone as active ingredient (same as in Test Example 13) were diluted with water corresponding to 1,000 L per hectare and applied for soil treatment.
On the 12th day after treatment, the state of growth of black nightshade was visually observed and evaluated in the same manner as in Test Example 1.

The subject of test [7] is velvetleaf (Abutilon theophrasti MEDIC.). Briefly: Test Example 13: pot, soil treatment, metobromuron + pyroxasulfone. As to conditions: soil treatment, pot, 12th day after treatment, read-out: Growth inhibition rate of velvetleaf (%) Measured value.
Description: as §1, §2, §3
Soil was put into a 1/300,000 ha pot, and seeds of velvetleaf (Abutilon theophrasti MEDIC.) were sown. Prior to germination of velvetleaf, predetermined amounts of SC containing metobromuron as active ingredient (same as in Test Example 1) and WG containing pyroxasulfone as active ingredient (trade name: Sakura 850 WG, manufactured by Bayer CropScience) were diluted with water corresponding to 1,000 L per hectare and applied for soil treatment.
On the 12th day after treatment, the state of growth of velvetleaf was visually observed and evaluated in the same manner as in Test Example 1.

In test [8] the test system is common lambsquarters (Chenopodium album L.). Briefly: Test Example 30: pot, soil treatment, metobromuron + thiobencarb. As to conditions: soil treatment, pot, 20th day after treatment, read-out: Growth inhibition rate of common lambsquarters (%) Measured value.
Description: as §1, §2, §3
(§8) Soil was put into a 1/300,000 ha pot, and seeds of common lambsquarters (Chenopodium album L.) were sown. On the day after seeding, predetermined amounts of SC containing metobromuron as active ingredient (same as in Test Example 1) and EC containing thiobencarb as active ingredient (trade name: Saturn NYUZAI, manufactured by KUMIAI CHEMICAL INDUSTRY Co., Ltd.) were diluted with water corresponding to 1,000 L per hectare and applied for soil treatment.
(§9) On the 20th day after treatment, the state of growth of common lambsquarters was visually observed and evaluated in the same manner as in Test Example 1.

The test system of test [9] is black nightshade (Solanum nigrum L.). Briefly: Test Example 31: pot, soil treatment, metobromuron + thiobencarb. To be noted: soil treatment, pot, 20th day after treatment, read-out: Growth inhibition rate of black nightshade (%) Measured value.
Description: as §1, §2, §3, §8, §9
The test was carried out in the same manner as in Test Example 30 except that common lambsquarters (Chenopodium album L.) was changed to black nightshade (Solanum nigrum L.), to obtain the results as shown in Table 32.

As a reminder, the inhibition is the share of the control response that was lost under treatment. As to `CCC1(CC2(c3cccc(Cl)c3)CO2)C(=O)c2ccccc2C1=O` (racemic) [Indanofan, (RS)-2-[2-(3-chlorophenyl)-2,3-epoxypropyl]-2-ethyl indane-1,3-dione], in test [1] (25 g/ha), the inhibition at 25 g/ha worked out at 25%. For the same compound, the inhibition at 37.5 g/ha in [1] (37.5 g/ha) was 25%. Moreover, the inhibition at 56.3 g/ha in test [1] (56.3 g/ha) was 28%.

Regarding `CC(C)N(C(=O)COc1nnc(C(F)(F)F)s1)c1ccc(F)cc1` [Flufenacet, 4′-fluoro-N-isopropyl-2-[5-(trifluoromethyl)-1,3,4-thiadiazol-2-yloxy] acetanilide], in test [2] (83.35 g/ha), the inhibition at 83.35 g/ha amounted to 30%. The inhibition at 125 g/ha in [2] (125 g/ha) is 25%. Also, the inhibition at 187.5 g/ha in [2] (187.5 g/ha) worked out at 40%.

On to `CSc1nc(NC(C)C)nc(NC(C)C)n1` [Prometryn, N^2,N^4-diisopropyl-6-methylthio-1,3,5-triazine-2,4-diamine], for which the inhibition at 300 g/ha is 62% in test [3] (300 g/ha) and 15% in test [4] (300 g/ha). Moreover, the inhibition at 400 g/ha turned out to be 76% in test [3] (400 g/ha) and 38% in [4] (400 g/ha).

Turning to `CCCN(CCC)C(=O)SCc1ccccc1` [Prosulfocarb, S-benzyl dipropyl(thiocarbamate)], the inhibition at 653.4 g/ha in test [5] (653.4 g/ha) worked out at 50%. The inhibition at 980 g/ha in test [5] (980 g/ha) came out at 50%. For the same compound, the inhibition at 1470 g/ha in test [5] (1470 g/ha) is 50%.

As for `Cn1nc(C(F)(F)F)c(CS(=O)(=O)C2=NOC(C)(C)C2)c1OC(F)F` [Pyroxasulfone, 3-[5-(difluoromethoxy)-1-methyl-3-(trifluoromethyl)pyrazol-4-ylmethylsulfonyl]-4,5-dihydro-5,5-dimethyl-1,2-oxazole], the inhibition at 25 g/ha in test [6] (25 g/ha) was 50%; in [7] (25 g/ha), 25%. The inhibition at 33 g/ha in test [6] (33 g/ha) was 64%; in test [7] (33 g/ha), 28%. In addition, the results for the inhibition at 50 g/ha in test [6] (50 g/ha) and in [7] (50 g/ha) were 73% and 38%, respectively.

As to `CCN(CC)C(=O)SCc1ccc(Cl)cc1` [Thiobencarb, S-4-chlorobenzyl diethyl(thiocarbamate)], the inhibition at 296.3 g/ha turned out to be 0% in test [8] (296.3 g/ha) and 25% in test [9] (296.3 g/ha). Also, the inhibition at 444.4 g/ha stood at 0% in test [8] (444.4 g/ha) and 23% in test [9] (444.4 g/ha). Besides, the inhibition at 666.7 g/ha in [8] (666.7 g/ha) came to 0%; in [9] (666.7 g/ha) it was 20%.
